# According to US5466716A, “Liposomal trimethylsphingosine” (The Biomembrane Institute, priority 1994, dated 1995):
# Entries after “also recorded” stand apart in the source; their conditions may differ. Read-outs that look alike come from different tables or passages of the source.
# Key:
# Type in all cases: cell-based, human
# neutrophils [1] = test: neutrophil viability (trypan blue exclusion); details: for cytotoxic damage to neutrophils: 25 μM
# Method: (§1) The viability was evaluated by trypan blue exclusion assay. The cell
# (§2) incubated at 37° C. for 10 min with effectors. The aliquot was
# (§3) mixed with an equal amount of trypan blue solution and immediately counte
# (§4) under a Nikon light microscope.
# [2] = neutrophil viability (trypan blue exclusion); details: neutrophils
# Method: as §1, §2, §3, §4
# [3] = system: 47 kDa and 65 kDa proteins; test: PMA-induced phosphorylation of 47 kDa and 65 kDa neutrophil proteins; details: for phosphorylation of 47 kDa and 65 kDa proteins / time in which inhibitory effect on phosphorylation is observed: 15-45 μM; for phosphorylation of 47 kDa and 65 kDa proteins: PMA 1.5 μM; for time in which inhibitory effect on phosphorylation is observed: incubation
# Method: Excess unbound components were removed by centrifugation and the pellets were resuspended in the same buffer, repeating twice. The cells then were divided into 7 treatment groups, each containing ≈1×10^7 cells in a total volume of 0.4 ml. […] Two minutes later, the reaction was terminated by adding 0.1 ml of Laemmli's sample buffer and 20 mM EDTA, followed by heating at 100° C. for 5 min. Aliquots were separated through 10% sodium dodecyl sulfate gels using known procedures. ^32 P incorporation was visualized by autoradiography.
# [4] = system: phosphoinositide turnover; test: fMLP-induced phosphoinositide turnover in neutrophils (32P incorporation); details: for activity at 5 µM: Homo sapiens, Neutrophil, Table VI, 5 μM effector plus fMLP, control 100, read-out: PIP labeling
# Method: Amount of ^32 P in PIP and PIP2 was measured using TLC separation. The spots on TLC plates were scraped off and the radioactivity therein was measured with a Beckman scintillation counter. Each spot was compared as to intensity with the identical spot of the control sample.
# After incubation, the cells were washed and resuspended in the same buffer at a concentration of 1×10^7 cells/ml. Each suspension (1 ml) then was pretreated with TMS, SPN or DMS, or equal volume of 50% ethanol, for 10 min at 37° C. Then keeping the same temperature, fMLP was added to a final concentration of 1.0 μM. Two minutes later, the reaction was terminated by adding 3.75 ml of chloroform/methanol (1:2) to each cell suspension, followed by sonication for 15 min. An additional 1.25 ml of chloroform, 1.25 ml of water and 50 μl of acetone were added and the total mixture was mixed and left overnight.
# Following centrifugation of the mixture, the phospholipids were extracted by Folch's partition method, taking the lower phase from the cell lysate. […] The TLC plate was developed with control phospholipids, in a solvent comprising chloroform/methanol/4M NaOH at a ratio of 45:35:10 and containing 0.1% CDTA (trans-1,2-diaminocyclohexane-N,N,N',N'-tetraacetic acid) for 65 min at 37° C. The bands were identified by staining the control phospholipids with primuline and visualization under ultraviolet light. Autoradiography was performed with Kodak diagnostic film GBX-2 (Rochester N.Y.) by exposing overnight at 37° C.
# neutrophils [5] = test: phagokinetic activity of neutrophils on gold sol-coated plates; details: for activity at 4.5 µM / activity at 12 µM: Homo sapiens, Neutrophil; for activity at 4.5 µM: 2 h, read-out: Area Swept; for activity at 12 µM: read-out: Area Swept (recovery of phagokinetic activity)
# Method: The phagokinetic activity of neutrophils on gold sol-coated plates can be determined by a technique essentially as taught in Albrecht-Buehler (Cell, 11, 395, 1977). […] Thus, the inhibitory effect of TMS on phagokinetic activity is not dependent on cytotoxicity.
# .sctn. The area swept by neutrophils was determined in photographs of the
# monolayers. The regions cleared by neutrophil movement were then cut out
# Phagokinetic activity was observed by tracing tracks of neutrophils moving on a glass substrate covered with gold colloid particles. The technique was described originally by Albrecht-Buehler, supra, using 3T3 and other cell lines. Briefly, 22×22 mm square glass coverslips (Corning Glass Works, Corning, N.Y.) were dipped for 1 min into 1% BSA prepared in Milli Q water. The BSA solution was prepared fresh each day and passed through 0.20 μm Nalgene filters (Nalgene Labware Division, Rochester, N.Y.).
# The coverslip then was drained by touching a Kim-wipe paper towel to its edge, dipped into 100% ethanol and rapidly and completely dried in a 85° C. hot airstream. The coverslip was placed in a 3.5 cm Falcon plastic dish. Then 5.4 ml of AuCl4 H and 18 ml of 36.5 mM Na2 CO3 were added to 33 ml of distilled water and heated. Immediately after reaching the boiling point, 5.4 ml of 0.1% formaldehyde in water were added quickly and mixed. The suspension of gold particles forming a brownish color was distributed immediately onto the dish (2 ml each) and the coverslip was incubated for 2 hr at 37° C.
# Particle-coated coverslips were washed in PBS, then twice in RPMI 1640 and finally put in another 3.5 cm Falcon plastic dish containing 2 ml of RPMI 1640 with glutamate and pyruvate. The coverslips were stored at 4° C. and used within 24 hr after preparation.
# The freshly-purified neutrophils (1×10^4 cells/plate) were added onto the colloid-coated coverslip. TMS and other effectors were added into the medium on the plate. As a control, the solvent of the effectors (50% ethanol) was added at an equal amount. At that concentration (0.1%), ethanol brought no significant effect on neutrophil activities. To observe cell recovery from exposure to the effectors, neutrophils (2×10^5 cells/ml) were pre-incubated at 37° C. with 12 μM of TMS, SPN and DMS, then distributed to the dish dropwise, diluting the effectors 200-fold. Incubation was conducted under 5% CO2 at 37° C. for 2 hr and terminated by adding 200 μl of 10% formaldehyde. Microscopic examination of each plate was performed with a Nikon microscope, connected to a Polaroid camera for recordings. Phagokinetic activity was measured by tracing the track of a neutrophil. The track was recorded with photographs, then the area was measured by cutting and weighing there swept area.
# [6] = Table III, control 94, read-out: Viability
# [7] = Table IV, 12 μM preincubation then 200-fold dilution, control 100
compound,measurement,setting,value
"CCCCCCCCCCCCC/C=C/[C@@H](O)[C@H](CO)[N+](C)(C)C [TMS, N,N,N-trimethylsphingosine]",cell cytotoxicity,neutrophils [1]; 15 μM,no significant cell cytotoxicity
same,cell viability during transmigration,neutrophils [1]; 15 μM,without affecting the viability of the cells
same,cytotoxic damage to neutrophils,neutrophils [1],negligible
same,cell viability,neutrophils [1]; Examples 9 and 10,without an adverse effect on cell viability; also recorded: without effecting cell viability
same,"viability at 10 min, 15 µM",[2]; [6],97 ± 2.9%
same,"viability at 10 min, 5 µM","[2]; Table V, 37° C., 10 min",98 ± 2%
same,"viability at 10 min, 25 µM","[2]; Table V, 37° C., 10 min",83 ± 6%
same,"viability at 10 min, 45 µM","[2]; Table V, 37° C., 10 min",63 ± 8%
same,phosphorylation of 47 kDa and 65 kDa proteins,[3],diminished significantly
same,phosphorylation of specific proteins related to protein kinase C,[3]; Example 7,had an affect on phosphorylation of specific proteins
same,time in which inhibitory effect on phosphorylation is observed,[3],≤ 2 min
same,"suppression of fMLP-dependent enhancement of 32P incorporation into PI, PIP and PIP2","[4]; 5 μM, fMLP 1 μM",suppressed strongly
same,fMLP induced phosphorylation of phosphotidyl inositols,[4]; Example 8,suppressed
same,activity at 5 µM,[4],127 ± 19%
same,suppression of phagokinetic activity,neutrophils [5]; 1.5 μM,suppressed significantly
same,suppression of phagokinetic activity,neutrophils [5]; 4.5 μM,completely suppressed
same,neutrophil migration (phagokinetic),neutrophils [5]; Example 9,inhibited neutrophil migration
same,activity at 4.5 µM,"neutrophils [5]; Table I, 4.5 μM, control 100",16 ± 18%
same,activity at 12 µM,neutrophils [5]; [7],92 ± 34%
same,reversal of inhibitory effect on phagokinetic activity,neutrophils [5]; medium replaced with TMS-free medium,reversed completely
Calphostin C,Viability,"neutrophils [1]; Table III, 5 μM, control 94, 10 min",46 ± 5.5
same,Area Swept,"neutrophils [5]; Table I, 0.5 μM, control 100, 120 min",39 ± 11%
"CCCCCCCCCCCCC/C=C/[C@@H](O)[C@@H](N)CO [SPN, sphingosine]",cytotoxic damage to neutrophils,neutrophils [1],major cytotoxic damage to neutrophils
same,"cytotoxicity at 10 min, 15 µM",[2],12 to 13%
same,"viability at 10 min, 15 µM",[2]; [6],87 ± 5.3%
same,"viability at 10 min, 5 µM","[2]; Table V, 37° C., 10 min",95 ± 3%
same,"viability at 10 min, 25 µM","[2]; Table V, 37° C., 10 min",53 ± 18%
same,"viability at 10 min, 45 µM","[2]; Table V, 37° C., 10 min",5 ± 5%
same,phosphorylation of 47 kDa and 65 kDa proteins,[3],diminished significantly
same,time in which inhibitory effect on phosphorylation is observed,[3],≤ 2 min
same,activity at 5 µM,[4],174 ± 37%
same,activity at 4.5 µM,neutrophils [5],14 ± 7%
same,activity at 12 µM,neutrophils [5],42 ± 24%
"CCCCCCCCCCCCC/C=C/[C@@H](O)[C@H](CO)N(C)C [DMS, (4E)-N,N-dimethyl-D-erythro-sphingosine]",cytotoxic damage to neutrophils,neutrophils [1],major cytotoxic damage to neutrophils
same,"cytotoxicity at 10 min, 15 µM",[2],12 to 13%
same,"viability at 10 min, 5 µM","[2]; Table V, 37° C., 10 min",96 ± 3%
same,"viability at 10 min, 15 µM","[2]; Table V, 37° C., 10 min, read-out: Viability of neutrophils",88 ± 8%
same,"viability at 10 min, 25 µM","[2]; Table V, 37° C., 10 min",29 ± 5%
same,"viability at 10 min, 45 µM","[2]; Table V, 37° C., 10 min",0%
same,phosphorylation of 47 kDa and 65 kDa proteins,[3],diminished significantly
same,time in which inhibitory effect on phosphorylation is observed,[3],≤ 2 min
same,activity at 5 µM,[4],146 ± 27%
same,activity at 4.5 µM,"neutrophils [5]; Table I, 4.5 μM, control 100",26 ± 25%
same,activity at 12 µM,neutrophils [5]; [7],32 ± 19%
